Test results published in patent US20090137565A1, “Method for treatment of movement disorders” (The Trustees of Columbia University in the City of New York, priority 2004, published 2009).
“Also recorded” adds a separate entry of the source.

What was measured:
[1] = tested on: ethanol-responsive essential tremor; assay: Five-patient open-label trial of sodium oxybate, blinded WHIGET tremor rating (patients #4, 5); format: in vivo, human; conditions: for WHIGET TOTAL SUSTENTION score: range 0-6; for Rx effect, WHIGET TOTAL ACTION (improvement in tremor): listed as sodium oxybate, monosodium salt
Text: Five patients were enrolled in a trial from the Movement Disorders Division of Columbia University Medical Center during the fall of 2004. All patients were afflicted with hyperkinetic movement disorders that responded to ethanol (defined as a noticeable change to the patient), and all were refractory to treatment with conventional medications or could not tolerate them. The Medical Center's Institutional Review Board approved the trial, and written and verbal informed consent were obtained from all patients prior to enrollment.
The dose and timing of all other drugs were kept constant throughout the trial, and patients were not withdrawn from other medications. Patients #1-3 were examined and videotaped using the Unified Myoclonus Rating Scale (UMRS), and patients #4 and 5 were examined and videotaped using the Washington Heights Inwood Tremor Rating Scale (WHIGET) (see Appendix I). Frucht S. J., et al. Adv Neurol 89:361-76 (2002); Louis, E. D., et al. Mov Disord 16:89-93 (2001).
(§1) Side effects were defined as either minor or serious (leading to hospitalization) using good clinical practice standards (www.who.int/medicines/library/par/ggcp/GCPGuidePharmatrials), and patients were asked to report side effects at each visit. After initial examination and videotaping, patients were given 1 gm of sodium oxybate by mouth (2 ml of the standard 0.5 gm/ml solution dissolved in 60 ml of water). One hour later, the senior author repeated the examination and videotaping. […] After two weeks taking 2 gm twice daily, the procedure was repeated after a 3 gm office dose, and finally two weeks after receiving 3 gm twice daily, the procedure was repeated after a 4 gm office dose. The maximum dose allowed in the trial was 4 gm twice daily. Patients and the senior author determined at each visit whether or not to proceed to the next dose level, based principally on their ability to tolerate the most recent dose regimen. After deciding on a maximum tolerated dose, patients received a dose in the office 0.5 gm less and the examination was videotaped.
The entire videotape segments and patient-writing samples from each visit were copied, and were blinded to trial order and identifying features, and were randomly ordered for review using a random number table. A movement disorder expert blinded to trial design and dose schedule, scored each videotape. Sub-scores for each visit were calculated as described previously. Frucht S. J., et al. Adv Neurol 89:361-76 (2002). We modified section 5 of the UMRS in which functional performance (pouring water, using a soup spoon) is performed only with the dominant arm (section V). […] This increased the maximum score of section 5 of the UMRS from 20 to 28.

[2] = Five-patient trial: tolerability of Xyrem; format: in vivo, human
Description: as §1

[3] = Twenty-patient trial: side effects and tolerability; format: in vivo, human; conditions: twenty patients
Text: (§2) Twelve men and 8 women enrolled. Results from patients #6, and #s 1, 2, 7, 12, and 13 were reported previously. Frucht, S. J., et al. Mov Disord 20:745-51 (2005); Frucht, S. J., et al. Mov Disord 20:1330-7 (2005). Mean age/symptom duration was 43.9 yrs/12.3 yrs (myoclonus) and 71.2 yrs/26.7 yrs (ET). Patients with myoclonus were examined and videotaped at each visit using the Unified Myoclonus Rating Scale (UMRS), and patients with ET were examined and videotaped using the modified Washington Heights Inwood Genetic Essential Tremor Rating Scale (WHIGET; Appendix 1). Frucht, S. J., et al. Mov Disord 20:1330-7 (2005). After initial baseline examination and videotaping, patients took 1 gm of sodium oxybate by mouth (2 ml of the standard 0.5 gm/ml solution dissolved in 60 ml of water), and one hour later the videotaped examination was repeated. Patients were maintained on a dose of 1 gm T.I.D. (taken before meals) until their next office visit two weeks later, when the examination and videotaping were repeated one hour after receiving 1.5 gm of sodium oxybate. Subsequent visits and dose titrations at two-week intervals were repeated until the maximum dose was reached (3 gm T.I.D), patients were satisfied with the results of treatment, or until they developed side effects that they viewed as troublesome. Dosing for patients #1, 2, 6, 7, 12, and 13 was slightly different (1 gm BID, with dose increments of 2 gm to maximum dose of 4 gm BID), but office visits and videotaping protocol were otherwise identical.

[4] = tested on: medication-refractory hyperkinetic movements; assay: Twenty-patient trial: clinical course (onset, wear-off, continuation); format: in vivo, human; conditions: noted by most patients at higher doses
Text: as §2, with “Dosing for patients #1, 2, 6, 7, 12, and 13 was slightly different (1 gm BID, with dose increments of 2 gm to maximum dose of 4 gm BID), but office visits and videotaping protocol were otherwise identical.” left out

NREM and REM sleep = conditions: about 30-60 mg/kg doses, healthy human volunteers; cited from earlier work
[5] = patient 4, listed as Xyrem ®, monosodium salt

For `O=C([O-])CCCO.[Na+]` [GHB, 4-hydroxybutanoic acid monosodium salt], which “WHIGET TOTAL ACTION score” value ([1]; patient 4, 1 gm, range 0-40, 0 gm score 19.5) is on record?
The value was 10.

What about the “WHIGET TOTAL SUSTENTION score” value ([1]; patient 4, 1.5 gm, 0 gm score 2.5) of the same compound?
Its value is 0.5.

And the “WHIGET TOTAL ACTION score” value ([1]; patient 4, 1.5 gm, range 0-40, 0 gm score 19.5)?
The value was 4.

And the “WHIGET TOTAL SUSTENTION score” value ([1]; patient 4, 2 gm, 0 gm score 2.5)?
Its value is 0.

And the “WHIGET TOTAL ACTION score” value ([1]; patient 4, 2 gm, range 0-40, 0 gm score 19.5)?
The value was 5.

And the “Rx effect, WHIGET TOTAL ACTION (improvement in tremor)” value ([1]; patient 4)?
The value was 79%.

What about the “WHIGET TOTAL ACTION score” value ([1]; patient 5, 1 gm, 0 gm score 23) of the same compound?
Its value is 19.

What about the “WHIGET TOTAL ACTION score” value ([1]; patient 5, 1.5 gm, 0 gm score 23) of the same compound?
The value was 13.5.

And the “WHIGET TOTAL SUSTENTION score” value ([1]; patient 5, 1.5 gm, 0 gm score 4)?
Its value is 2.5.

And the “WHIGET TOTAL ACTION score” value ([1]; patient 5, 2 gm, 0 gm score 23)?
The value was 12.

And the “WHIGET TOTAL SUSTENTION score” value ([1]; patient 5, 2 gm, 0 gm score 4)?
The value was 3.

And the “Rx effect, WHIGET TOTAL ACTION (improvement in tremor)” value ([1]; patient 5)?
The value was 48%.

And the “Blinded rating of the severity of torticollis” value ([1]; patient #4, 1 gm twice-daily dose, before: moderate)?
The value was “mild”.

And the kinetic tremor amplitude ([1]; patient #4, after 2 gm)?
Its kinetic tremor amplitude is “markedly diminished”.

And the kinetic tremor amplitude ([1]; patient #5, after 2 gm)?
The kinetic tremor amplitude was “the amplitude has diminished”.

And the “common side effects not requiring dose reduction” value ([2]; five patients)?
Its value is “Transient headache and dizziness”.

And the “Dose @ D-L-SE” value ([2]; patient 1)?
The value was 3 gm.

And the “D-L-SE (dose-limiting side effect)” value ([2]; patient 1, disinhibition printed as mild, listed as Xyrem ®, monosodium salt)?
The value was “sedation and mild; also recorded: disinhibition”.

What about the “SER SE (serious side effect, leading to hospitalization)” value ([2]; patient 1, judged not likely related to study drug) of the same compound?
The value was “asthma”.

What about the “Dose @ D-L-SE” value ([2]; patient 2) of the same compound?
Its value is 3 gm.

What about the “MILD SE” value ([2]; patient 2) of the same compound?
Its value is “Ø”.

What about the “SER SE” value ([2]; patient 2) of the same compound?
Its value is “Ø”.

What about the “D-L-SE (dose-limiting side effect)” value ([2]; patient 2, listed as Xyrem ®, monosodium salt) of the same compound?
Its value is “emotional lability”.

And the “D-L-SE (dose-limiting side effect)” value ([2]; patient 3)?
Its value is “slight sedation”.

What about the “Dose @ D-L-SE” value ([2]; patient 3) of the same compound?
Its value is 4 gm.

And the “SER SE” value ([2]; patient 3)?
The value was “Ø”.

And the “MILD SE” value ([2]; patient 3, listed as Xyrem ®, monosodium salt)?
The value was “HA (1 gm); also recorded: dizzy (1 gm)”.

What about the “Dose @ D-L-SE” value ([2]; patient 4) of the same compound?
The value was 2 gm.

And the “SER SE” value ([2]; patient 4)?
The value was “Ø”.

What about the “D-L-SE (dose-limiting side effect)” value [2, 5] of the same compound?
The value was “emotional lability”.

What about the “MILD SE” value [2, 5] of the same compound?
The value was “HA (1 gm); also recorded: dizzy (2 gm)”.

And the “D-L-SE (dose-limiting side effect)” value ([2]; patient 5)?
The value was “slight sedation”.

What about the “Dose @ D-L-SE” value ([2]; patient 5) of the same compound?
Its value is 2 gm.

And the “MILD SE” value ([2]; patient 5)?
The value was “Ø”.

And the “SER SE” value ([2]; patient 5)?
The value was “Ø”.

And the “dose titration limited by ataxia” value [3]?
Its value is 20%.

And the “dose titration limited by sedation” value [3]?
The value was 60%.

What about the “mild, transient side effect: dizziness” value [3] of the same compound?
Its value is 35%.

And the “mild, transient side effect: emotionality” value [3]?
The value was 20%.

And the “mild, transient side effect: headache” value [3]?
The value was 20%.

What about the “mild, transient side effect: nausea” value [3] of the same compound?
The value was 10%.

What about the “tolerability of daytime dosing” value [3] of the same compound?
The value was “acceptable”.

What about the wear-off of benefit [4] of the same compound?
The wear-off of benefit was “four to five hours”.

And the “duration of normal sequence of NREM and REM sleep” value (NREM and REM sleep)?
Its value is 2 to 3 h.
